From ChEMBL document CHEMBL1201862, “PubChem BioAssay data set” (2004)
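Cultured in 96-well plates, cells were exposed to test compound for 48 hours across five concentrations. GI50 marks 50% less growth.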 Activity calls are given as the source filed them. Rule as the data show it: active = GI50 up to about 1.1 µM and inactive = higher.

How the values were obtained:
Test in all cases: NCI anticancer screen, dose series, 48 h
[1] = test system: A498
[2] = test system: CAKI-1
[3] = test system: CCRF-CEM
[4] = test system: HCC 2998
[5] = test system: HCT-116
[6] = test system: HOP-62
[7] = test system: HOP-92
[8] = test system: KM12
[9] = test system: NCI-H226
[10] = test system: NCI-H522
[11] = test system: OVCAR-4
[12] = test system: SF-295
[13] = test system: SK-MEL-2
[14] = test system: SNB-19
[15] = test system: UO-31
[16] = test system: OVCAR-8
[17] = test system: UACC-257
[18] = test system: UACC-62
[19] = test system: Hs-578T
[20] = test system: NCI/ADR-RES

Measured: GI50

Cn1cc2ccccc2c1-c1nc(F)nc(F)n1
inactive: [1] > 100 µM | [2] > 100 µM | [3] 97.9 µM | [4] > 100 µM | [5] > 100 µM | [6] > 100 µM | [7] > 100 µM | [8] 63.5 µM | [9] > 100 µM | [10] > 100 µM | [11] > 100 µM | [12] > 100 µM | [13] > 100 µM | [14] > 100 µM | [15] > 100 µM

OCC1CC2CC1C1(C2)OCCO1 (stereo not given)
inactive: [1] > 100 µM | [2] > 100 µM | [3] > 100 µM | [5] > 100 µM | [6] > 100 µM | [7] > 100 µM | [8] > 100 µM | [9] > 100 µM | [10] > 100 µM | [11] > 100 µM | [16] > 100 µM | [12] > 100 µM | [13] > 100 µM | [14] > 100 µM | [17] > 100 µM | [18] > 100 µM | [15] > 100 µM

O=C(O)Cc1ccc2c(c1O)C(=O)c1c(ccc(CC(=O)O)c1O)C2=O
inactive: [1] > 100 µM | [2] > 100 µM | [3] > 100 µM | [4] > 100 µM | [5] > 100 µM | [6] > 100 µM | [7] > 100 µM | [8] > 100 µM | [9] > 100 µM | [10] > 100 µM | [11] > 100 µM | [16] > 100 µM | [12] > 100 µM | [13] > 100 µM | [14] > 100 µM | [17] > 100 µM

O=Cc1[nH]c2ccccc2c1Br
inactive: [1] 16.8 µM | [2] > 100 µM | [3] 37.4 µM | [4] 60.5 µM | [5] 18.5 µM | [6] 18 µM | [7] 26.8 µM | [8] 26.3 µM | [9] 29.8 µM | [10] 56.8 µM | [11] 31.3 µM | [16] 23.7 µM | [12] 38.4 µM | [13] 15.2 µM | [14] 24.8 µM | [17] 28.5 µM | [18] 16.9 µM | [15] 30.8 µM

O=C(C#Cc1ccccc1)N1c2ccccc2CC1c1c[nH]c2ccccc12 (stereo not given)
inactive: [1] 28.9 µM | [2] 11.4 µM | [3] 4.63 µM | [4] 17.2 µM | [5] 13.4 µM | [6] 8.95 µM | [7] 15.3 µM | [8] 15.6 µM | [9] 9.79 µM | [10] 11 µM | [11] 26.3 µM | [16] 11.6 µM | [12] 15.5 µM | [13] 12.5 µM | [14] 30.3 µM | [17] 19.1 µM | [18] 7.82 µM | [15] 23.1 µM

CC(C)(C)OC(=O)NCCCCC(NC(=O)OCc1ccccc1)C(N)=O (stereo not given)
inactive: [2] > 100 µM | [3] > 100 µM | [4] > 100 µM | [5] > 100 µM | [6] > 100 µM | [19] > 100 µM | [8] > 100 µM | [9] > 100 µM | [10] > 100 µM | [20] > 100 µM | [11] > 100 µM | [16] > 100 µM | [12] > 100 µM | [13] > 100 µM | [14] > 100 µM | [17] > 100 µM | [18] > 100 µM | [15] > 100 µM

O=c1[nH]cnc2c(C3OC(CO)C(O)C3O)c[nH]c12 (stereo not given)
inactive: [2] > 100 µM | [3] > 100 µM | [4] > 100 µM | [5] > 100 µM | [6] > 100 µM | [7] 68.7 µM | [19] > 100 µM | [8] > 100 µM | [9] > 100 µM | [10] > 100 µM | [11] > 100 µM | [16] > 100 µM | [12] > 100 µM | [14] > 100 µM | [17] > 100 µM | [18] > 100 µM | [15] > 100 µM

CCC1(CN(C)C)CC/C(=C\c2ccc(OC)cc2)C1=O (stereo not given)
inactive: [1] 84.1 µM | [2] > 100 µM | [3] 30 µM | [4] > 100 µM | [5] 93.1 µM | [6] > 100 µM | [7] > 100 µM | [8] > 100 µM | [9] > 100 µM | [10] 31.5 µM | [11] > 100 µM | [16] > 100 µM | [12] > 100 µM | [13] > 100 µM | [14] > 100 µM | [17] 89.3 µM | [18] > 100 µM | [15] > 100 µM

Cn1c(=O)n2n(c1=O)C([S+]([O-])c1ccccc1)C2 (stereo not given)
inactive: [2] > 100 µM | [3] 20.2 µM | [4] > 100 µM | [5] > 100 µM | [6] > 100 µM | [7] > 100 µM | [19] > 100 µM | [8] 42.8 µM | [10] 30.8 µM | [20] > 100 µM | [11] > 100 µM | [16] > 100 µM | [12] > 100 µM | [13] > 100 µM | [14] > 100 µM | [17] > 100 µM | [18] > 100 µM | [15] > 100 µM

COc1ccccc1NC(=O)C1=C(C)NC(C)=C(C(=O)Nc2ccccc2OC)C1c1cccc2c1OCO2
inactive: [1] > 100 µM | [2] > 100 µM | [3] 34.6 µM | [4] 85.7 µM | [5] 71.9 µM | [6] > 100 µM | [7] > 100 µM | [8] 60.7 µM | [9] > 100 µM | [11] > 100 µM | [16] > 100 µM | [12] > 100 µM | [13] 48.2 µM | [14] 91.8 µM | [17] > 100 µM | [18] > 100 µM | [15] 47.4 µM

COc1ccc2c3c([nH]c(=O)c2c1C(=O)O)-c1ccccc1CC3
inactive: [1] > 100 µM | [2] > 100 µM | [3] > 100 µM | [4] > 100 µM | [5] > 100 µM | [6] > 100 µM | [7] > 100 µM | [8] > 100 µM | [9] 65.8 µM | [10] > 100 µM | [11] > 100 µM | [12] > 100 µM | [13] > 100 µM | [14] > 100 µM | [15] > 100 µM

CCN(CC)c1ccc(/N=N/c2ccc(-c3nc4cccnc4o3)cc2)cc1
inactive: [1] > 100 µM | [2] > 100 µM | [3] > 100 µM | [4] 55.2 µM | [5] > 100 µM | [6] > 100 µM | [7] > 100 µM | [8] > 100 µM | [9] > 100 µM | [10] 66.4 µM | [11] > 100 µM | [16] > 100 µM | [12] > 100 µM | [13] > 100 µM | [14] > 100 µM | [17] > 100 µM | [18] > 100 µM | [15] > 100 µM

CC1=Nc2c(O)nc(S)nc2NC(c2ccc(Cl)c(Cl)c2)C1 (stereo not given)
inactive: [1] 18.9 µM | [2] 30.3 µM | [3] > 100 µM | [4] 17.8 µM | [5] 15.8 µM | [6] 46.3 µM | [7] > 93.1 µM | [8] 17.7 µM | [9] 22.6 µM | [10] 74.3 µM | [11] 25.5 µM | [16] 18.7 µM | [12] 20.1 µM | [13] > 100 µM | [14] > 45 µM | [17] 21 µM | [18] 29.8 µM | [15] 29.9 µM

O=C(O)c1ccccc1C1c2ccccc2Oc2ccccc21
inactive: [1] 27.7 µM | [2] 34.1 µM | [3] > 100 µM | [5] 45.3 µM | [6] 41.3 µM | [7] 19.1 µM | [8] 62.2 µM | [9] 16.4 µM | [10] 26.8 µM | [20] 59.7 µM | [11] 69.7 µM | [16] 96.6 µM | [12] 40.2 µM | [13] 23.4 µM | [14] 85.7 µM | [17] > 100 µM | [18] 25.8 µM | [15] 65.8 µM

COC(=O)C1=C(C(=O)OC)C(OO)(c2ccccc2)OC1=O (stereo not given)
inactive: [2] > 100 µM | [3] 55.6 µM | [4] > 100 µM | [5] 61.7 µM | [7] > 100 µM | [8] > 100 µM | [9] > 100 µM | [10] 60.7 µM | [20] > 100 µM | [11] > 100 µM | [16] > 100 µM | [12] > 100 µM | [13] 55.2 µM | [14] > 100 µM | [17] > 100 µM | [18] 34.2 µM | [15] > 100 µM

CC(CC(=O)Nc1ccc(NC(=O)CC(C)/N=N\C(N)=S)cc1)/N=N\C(N)=S (stereo not given)
inactive: [1] > 100 µM | [2] > 100 µM | [3] > 100 µM | [4] > 100 µM | [5] > 100 µM | [6] > 100 µM | [7] > 100 µM | [8] > 100 µM | [9] > 100 µM | [11] > 100 µM | [16] > 100 µM | [12] > 100 µM | [13] > 100 µM | [14] > 100 µM | [17] > 100 µM | [18] > 100 µM | [15] > 100 µM
